Patent publication US20180024136A1, “Development of ABCG2-Sensitive Fluorescent Probe For Isolation of ABCG2low Neural Stem/Progenitor Cells” (National University of Singapore, priority 2015, published 2018)

Test: Spectroscopic properties of CF library (absorbance, emission, quantum yield, extinction coefficient)
Type: physicochemical
Settings: 100 μM in ethanol; for QY (Φ): reference fluorescein
Procedure: All the chemicals and solvents were purchased from Sigma Aldrich, Alfa Aesar, Fluka, MERCK, Tocris or Acros, and used without further purification. Normal phase purifications were carried out using Merck Silica Gel 60 (particle size: 0.040-0.063 mm, 230-400 mesh). Analytical characterization was performed on a HPLC-MS (Agilent-1200 series) with a DAD detector and a single quadrupole mass spectrometer (6130 series) with an ESI probe. ^1H-NMR and ^13C-NMR spectra were recorded on Bruker Avance 300 MHz NMR spectrometers, and chemical shifts are expressed in parts per million (ppm) and coupling constants are reported as a J value in Hertz (Hz). High resolution mass spectrometry (HRMS) data was recorded on a Micro mass VG 7035 (Mass Spectrometry Laboratory at National University of Singapore (NUS)). Spectroscopic and quantum yield data were measured on spectroscopic measurements, performed on a fluorometer and UV/VIS instrument, Synergy 4 of Bioteck Company. The slit width was 1 nm for both excitation and emission, and the data analysis was performed using GraphPrism 5.0.

Row | Abs (nm) | Em (nm) | QY (Φ) | Structure (SMILES)
1 | 520 | 555 | 0.66 | CCN(Cc1ccccc1)C(=O)c1ccc(-c2c3cc(Cl)c(=O)cc-3oc3cc(O)c(Cl)cc23)cc1 [CF-D5]
2 | 520 | 555 | 0.32 | CCCCCCCCCCCCCCCCCCNC(=O)c1ccc(-c2c3cc(Cl)c(=O)cc-3oc3cc(O)c(Cl)cc23)cc1 [CF-D6]
3 | 520 | 555 | 0.54 | Cc1cccc(CN(C)C(=O)c2ccc(-c3c4cc(Cl)c(=O)cc-4oc4cc(O)c(Cl)cc34)cc2)c1 [CF-D7]
4 | 520 | 558 | 0.47 | O=C(NC1Cc2ccccc2C1)c1ccc(-c2c3cc(Cl)c(=O)cc-3oc3cc(O)c(Cl)cc23)cc1 [CF-D8]
5 | 520 | 558 | 0.25 | CCCNC(=O)c1ccc(-c2c3cc(Cl)c(=O)cc-3oc3cc(O)c(Cl)cc23)cc1 [CF-D9]
6 | 520 | 558 | 0.59 | O=C(NCCC(c1ccccc1)c1ccccc1)c1ccc(-c2c3cc(Cl)c(=O)cc-3oc3cc(O)c(Cl)cc23)cc1 [CF-D10]
7 | 520 | 558 | 0.44 | O=C(NCCCCc1ccccc1)c1ccc(-c2c3cc(Cl)c(=O)cc-3oc3cc(O)c(Cl)cc23)cc1 [CF-D11]
8 | 520 | 557 | 0.63 | O=C(NCc1c(Cl)cccc1Cl)c1ccc(-c2c3cc(Cl)c(=O)cc-3oc3cc(O)c(Cl)cc23)cc1 [CF-E2]
9 | 520 | 554 | 0.66 | CCCCN(CCCC)C(=O)c1ccc(-c2c3cc(Cl)c(=O)cc-3oc3cc(O)c(Cl)cc23)cc1 [CF-E3]
10 | 520 | 558 | 0.47 | CCOCCCNC(=O)c1ccc(-c2c3cc(Cl)c(=O)cc-3oc3cc(O)c(Cl)cc23)cc1 [CF-E4]
11 | 520 | 556 | 0.58 | O=C(NC1CCCC1)c1ccc(-c2c3cc(Cl)c(=O)cc-3oc3cc(O)c(Cl)cc23)cc1 [CF-E5]
12 | 520 | 557 | 0.29 | CC(C)C(C)NC(=O)c1ccc(-c2c3cc(Cl)c(=O)cc-3oc3cc(O)c(Cl)cc23)cc1 (stereo not drawn) [CF-E6]
13 | 520 | 557 | 0.46 | COc1cccc(CCNC(=O)c2ccc(-c3c4cc(Cl)c(=O)cc-4oc4cc(O)c(Cl)cc34)cc2)c1OC [CF-E7]
14 | 520 | 559 | 0.34 | COc1ccccc1CCNC(=O)c1ccc(-c2c3cc(Cl)c(=O)cc-3oc3cc(O)c(Cl)cc23)cc1 [CF-F8]
15 | 520 | 557 | 0.34 | CC(C)OCCCNC(=O)c1ccc(-c2c3cc(Cl)c(=O)cc-3oc3cc(O)c(Cl)cc23)cc1 [CF-F9]
16 | 520 | 559 | 0.35 | CCCCCCN(C)C(=O)c1ccc(-c2c3cc(Cl)c(=O)cc-3oc3cc(O)c(Cl)cc23)cc1 [CF-F10]

Second part, the compound before the results:

Row | Structure (SMILES) | Abs (nm) | Em (nm) | QY (Φ)
17 | CCCCCCCCCCCCCCNC(=O)c1ccc(-c2c3cc(Cl)c(=O)cc-3oc3cc(O)c(Cl)cc23)cc1 [CF-A2] | 520 | 558 | 0.42
18 | CCC(NC(=O)c1ccc(-c2c3cc(Cl)c(=O)cc-3oc3cc(O)c(Cl)cc23)cc1)c1ccccc1 (stereo not drawn) [CF-A3] | 520 | 559 | 0.40
19 | CCCCCCCCCCCCCNC(=O)c1ccc(-c2c3cc(Cl)c(=O)cc-3oc3cc(O)c(Cl)cc23)cc1 [CF-A4] | 520 | 558 | 0.26
20 | O=C(c1ccc(-c2c3cc(Cl)c(=O)cc-3oc3cc(O)c(Cl)cc23)cc1)N1CCc2ccccc2C1 [CF-A5] | 520 | 556 | 0.75
21 | CC(Cc1ccccc1)NC(=O)c1ccc(-c2c3cc(Cl)c(=O)cc-3oc3cc(O)c(Cl)cc23)cc1 (stereo not drawn) [CF-A6] | 520 | 557 | 0.43
22 | O=C(NCc1c(F)cccc1F)c1ccc(-c2c3cc(Cl)c(=O)cc-3oc3cc(O)c(Cl)cc23)cc1 [CF-A7] | 520 | 560 | 0.58
23 | O=C(NCc1ccc(OC(F)(F)F)cc1)c1ccc(-c2c3cc(Cl)c(=O)cc-3oc3cc(O)c(Cl)cc23)cc1 [CF-A8] | 520 | 558 | 0.37
24 | O=C(NC1CCCCC1)c1ccc(-c2c3cc(Cl)c(=O)cc-3oc3cc(O)c(Cl)cc23)cc1 [CF-A9] | 520 | 557 | 0.63
25 | CN(C(=O)c1ccc(-c2c3cc(Cl)c(=O)cc-3oc3cc(O)c(Cl)cc23)cc1)C1CCCCC1 [CF-A10] | 520 | 558 | 0.63
26 | CCCN(CCC)C(=O)c1ccc(-c2c3cc(Cl)c(=O)cc-3oc3cc(O)c(Cl)cc23)cc1 [CF-A11] | 520 | 558 | 0.36
27 | O=C(NC1CC1)c1ccc(-c2c3cc(Cl)c(=O)cc-3oc3cc(O)c(Cl)cc23)cc1 [CF-B2] | 520 | 558 | 0.53
28 | COCCNC(=O)c1ccc(-c2c3cc(Cl)c(=O)cc-3oc3cc(O)c(Cl)cc23)cc1 [CF-B3] | 520 | 557 | 0.32
29 | CCCCN(CC)C(=O)c1ccc(-c2c3cc(Cl)c(=O)cc-3oc3cc(O)c(Cl)cc23)cc1 [CF-B4] | 520 | 556 | 0.90
30 | CCCCC(CC)COCCCNC(=O)c1ccc(-c2c3cc(Cl)c(=O)cc-3oc3cc(O)c(Cl)cc23)cc1 (stereo not drawn) [CF-B5] | 520 | 559 | 0.54
31 | CN(Cc1ccccc1)C(=O)c1ccc(-c2c3cc(Cl)c(=O)cc-3oc3cc(O)c(Cl)cc23)cc1 [CF-B6] | 520 | 558 | 0.77
32 | O=C(c1ccc(-c2c3cc(Cl)c(=O)cc-3oc3cc(O)c(Cl)cc23)cc1)N1CCCC1 [CF-B7] | 520 | 556 | 0.70

Row | Structure (SMILES) | Abs (nm) | Em (nm) | QY (Φ)
33 | CC(C)NC(=O)c1ccc(-c2c3cc(Cl)c(=O)cc-3oc3cc(O)c(Cl)cc23)cc1 [CF-B8] | 520 | 559 | 0.57
34 | CCCCC(CC)CNC(=O)c1ccc(-c2c3cc(Cl)c(=O)cc-3oc3cc(O)c(Cl)cc23)cc1 (stereo not drawn) [CF-B9] | 520 | 558 | 0.60
35 | COc1ccc(CCNC(=O)c2ccc(-c3c4cc(Cl)c(=O)cc-4oc4cc(O)c(Cl)cc34)cc2)cc1OC [CF-B10] | 520 | 559 | 0.56
36 | CCCCCCCNC(=O)c1ccc(-c2c3cc(Cl)c(=O)cc-3oc3cc(O)c(Cl)cc23)cc1 [CF-B11] | 520 | 558 | 0.66
37 | CC(C)N(Cc1ccccc1)C(=O)c1ccc(-c2c3cc(Cl)c(=O)cc-3oc3cc(O)c(Cl)cc23)cc1 [CF-C2] | 520 | 559 | 0.78
38 | CCCCCCCCNC(=O)c1ccc(-c2c3cc(Cl)c(=O)cc-3oc3cc(O)c(Cl)cc23)cc1 [CF-C3] | 520 | 559 | 0.37
39 | COc1cccc(CNC(=O)c2ccc(-c3c4cc(Cl)c(=O)cc-4oc4cc(O)c(Cl)cc34)cc2)c1 [CF-C4] | 520 | 559 | 0.55
40 | COc1ccc(CCNC(=O)c2ccc(-c3c4cc(Cl)c(=O)cc-4oc4cc(O)c(Cl)cc34)cc2)cc1 [CF-C5] | 520 | 558 | 0.63
41 | CCCN(CC1CC1)C(=O)c1ccc(-c2c3cc(Cl)c(=O)cc-3oc3cc(O)c(Cl)cc23)cc1 [CF-C6] | 520 | 554 | 0.58
42 | CC1CCCCC1NC(=O)c1ccc(-c2c3cc(Cl)c(=O)cc-3oc3cc(O)c(Cl)cc23)cc1 (stereo not drawn) [CF-C7] | 520 | 558 | 0.42
43 | CC(C)CCNC(=O)c1ccc(-c2c3cc(Cl)c(=O)cc-3oc3cc(O)c(Cl)cc23)cc1 [CF-C8] | 520 | 558 | 0.68
44 | O=C(NC1CCCCCC1)c1ccc(-c2c3cc(Cl)c(=O)cc-3oc3cc(O)c(Cl)cc23)cc1 [CF-C9] | 520 | 558 | 0.50
45 | Cc1ccc(CCNC(=O)c2ccc(-c3c4cc(Cl)c(=O)cc-4oc4cc(O)c(Cl)cc34)cc2)cc1 [CF-C10] | 520 | 558 | 0.54
46 | O=C(NCCCN1CCCC1=O)c1ccc(-c2c3cc(Cl)c(=O)cc-3oc3cc(O)c(Cl)cc23)cc1 [CF-D2] | 520 | 557 | 0.61
47 | CC1CN(C(=O)c2ccc(-c3c4cc(Cl)c(=O)cc-4oc4cc(O)c(Cl)cc34)cc2)CC(C)O1 (stereo not drawn) [CF-D3] | 520 | 555 | 0.47
48 | CN(CCc1ccccc1)C(=O)c1ccc(-c2c3cc(Cl)c(=O)cc-3oc3cc(O)c(Cl)cc23)cc1 [CF-D4] | 520 | 555 | 0.69
